According to US9120744B2, “Plasminogen activator inhibitor-1 inhibitors and methods of use thereof to modulate lipid metabolism” (THE REGENTS OF THE UNIVERSITY OF MICHIGAN, priority 2007, dated 2015):
Values belong to the molecule of their own block, whether it stands above or below them. Where a SMILES comes first, the peptide text is derived from it. [ ]: non-standard residue; d: D form. The star is where a group is joined. Tyr(3-NO2) = N[C@@H](Cc1ccc(O)c([N+](=O)[O-])c1)C(=O)O; Boc = CC(C)(C)OC(=O)*

Key:
[1] = target: T1, recombinant active human PAI-1 (Homo sapiens (Human), UniProt P05121); assay: Fluorometric IC50 plate assay (PAI-1 inhibition of uPA, Z-Gly-Gly-Arg-AMC); assay type: biochemical; settings: in vitro, PAI-1 1 nM, uPA 2.5 nM, pH 7.8, 10% DMSO; ND = not detected, e.g. no inhibition
T1 sequence (P05121 24-402): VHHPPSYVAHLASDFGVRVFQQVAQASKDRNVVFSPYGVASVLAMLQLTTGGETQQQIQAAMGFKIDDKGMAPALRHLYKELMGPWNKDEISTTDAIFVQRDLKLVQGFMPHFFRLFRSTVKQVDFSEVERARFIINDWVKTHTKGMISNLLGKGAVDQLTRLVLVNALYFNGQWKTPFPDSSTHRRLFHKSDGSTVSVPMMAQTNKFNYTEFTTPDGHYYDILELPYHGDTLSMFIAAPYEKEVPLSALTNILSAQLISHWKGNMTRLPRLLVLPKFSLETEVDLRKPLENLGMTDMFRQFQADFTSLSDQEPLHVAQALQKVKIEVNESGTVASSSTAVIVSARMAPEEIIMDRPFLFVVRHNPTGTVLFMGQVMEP

PAI-1 = PAI-1 (Homo sapiens (Human), UniProt P05121); assay: Surface plasmon resonance, loss of PAI-1 binding to immobilized anhydrotrypsin; settings: PAI-1 2 nM preincubated with compound, SPR; read-out: Apparent KD (nM) ± SEM
PAI-1, sequence (P05121 24-402): as above

[2] = target: T1, recombinant active human PAI-1; assay: pH dependence of PAI-1 inhibition, fluorogenic uPA (or tPA) assay; assay type: biochemical; settings: for effect of pH on PAI-1 inhibition (in words): pH 6.5 to 8.5; for PAI-1 inhibitory efficacy (in words): pH 7.5 (FIG. 8), additional experiments
[3] = target: T1, recombinant active human PAI-1; assay: High throughput uPA chromogenic screen for PAI-1 inactivators; assay type: biochemical; settings: 10 μM compound; hit = more than 3 standard deviations above control
[4] = target: T1, recombinant active human PAI-1; assay: β-trypsin screening assay for PAI-1 inhibitors; assay type: biochemical; settings: 10 μM compound; hit = more than 3 standard deviations above control;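 further: fluorogenic readout with PAI-1 and β-trypsin at 10:1 molar ratio, untreated PAI-1 wells set as 100% PAI-1 activity and β-trypsin alone as 0%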
[5] = target: anti-thrombin III (ATIII) (Homo sapiens (Human), UniProt P01008); assay: Specificity assay on anti-thrombin III (thrombin activity); assay type: biochemical; settings: pH 7.5 or pH 8.5, with heparin
anti-thrombin III (ATIII), sequence (P01008 33-464, species assumed): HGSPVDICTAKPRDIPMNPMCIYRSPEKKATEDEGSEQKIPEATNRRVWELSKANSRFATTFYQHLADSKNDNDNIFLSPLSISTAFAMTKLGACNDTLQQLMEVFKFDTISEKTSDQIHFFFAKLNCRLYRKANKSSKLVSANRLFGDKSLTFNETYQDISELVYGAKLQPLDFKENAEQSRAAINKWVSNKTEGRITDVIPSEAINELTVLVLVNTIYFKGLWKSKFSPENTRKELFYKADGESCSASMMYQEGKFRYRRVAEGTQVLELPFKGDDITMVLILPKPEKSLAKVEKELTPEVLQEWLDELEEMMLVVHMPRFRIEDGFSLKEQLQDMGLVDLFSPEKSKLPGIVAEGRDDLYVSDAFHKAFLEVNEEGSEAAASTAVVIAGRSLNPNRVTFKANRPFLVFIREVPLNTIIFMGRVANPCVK

PAI-1/vitronectin = PAI-1/vitronectin (Homo sapiens (Human), UniProt P05121); assay: Inhibition of PAI-1 in the presence of vitronectin, fluorogenic uPA assay; assay type: biochemical
PAI-1/vitronectin, sequence (P05121 24-402): as the sequence (P05121 24-402) above

active mouse PAI-1 = active mouse PAI-1 (Mus musculus (Mouse), UniProt P22777); assay: Ex vivo plasma Luminex assay, mouse plasma spiked with active mouse PAI-1; assay type: biochemical; settings: mouse plasma spiked with active mouse PAI-1 3-4 ng/mL
active mouse PAI-1, sequence (P22777 23-402): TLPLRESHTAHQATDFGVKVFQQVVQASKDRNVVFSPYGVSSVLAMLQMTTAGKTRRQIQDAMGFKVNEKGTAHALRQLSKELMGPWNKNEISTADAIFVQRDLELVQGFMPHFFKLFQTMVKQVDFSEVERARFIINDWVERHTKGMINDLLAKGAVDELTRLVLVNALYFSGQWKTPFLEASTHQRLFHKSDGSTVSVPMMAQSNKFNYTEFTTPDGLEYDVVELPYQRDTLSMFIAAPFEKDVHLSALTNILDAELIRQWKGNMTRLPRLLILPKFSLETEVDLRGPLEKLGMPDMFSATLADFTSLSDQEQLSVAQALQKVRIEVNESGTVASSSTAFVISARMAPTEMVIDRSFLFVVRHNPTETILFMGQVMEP

IC50 [1]: 32.7 µM
SMILES: CN(N(C)S(=O)(=O)c1ccc(O)c(O)c1)S(=O)(=O)c1ccc(O)c(O)c1 [CDE-068]

IC50 [1]: 1.17 µM
Kd (PAI-1): 67 ± 3 nM
SMILES: O=C(O[C@@H]1CCCC[C@H]1OC(=O)c1cc(O)c(O)c(O)c1)c1cc(O)c(O)c(O)c1 [CDE-034]

IC50 [1]: 386 µM
effect of pH on PAI-1 inhibition (in words) [2]: increased with increasing pH
PAI-1 inhibitory efficacy (in words) [2]: effective inhibitors of PAI-1
SMILES: CC(C)(C)OC(=O)N[C@@H](Cc1ccc(O)c([N+](=O)[O-])c1)C(=O)O [CDE-028]

Kd (PAI-1): 5.3 ± 0.2 nM
SMILES: O=C(OCC(COC(=O)c1cc(O)c(O)c(O)c1)OC(=O)c1cc(O)c(O)c(O)c1)c1cc(O)c(O)c(O)c1 [CDE-082]

IC50 [1]: 27.5 µM
SMILES: O=C(c1cc(O)c(O)c(O)c1)N1CCN(C(=O)c2cc(O)c(O)c(O)c2)CC1 [CDE-055]

IC50 [1]: 2.96 µM
Kd (PAI-1): 51 ± 6 nM
SMILES: O=C(Oc1ccccc1OC(=O)c1cc(O)c(O)c(O)c1)c1cc(O)c(O)c(O)c1 [CDE-056]

SMILES: O=C(Oc1cc(O)cc2c1C[C@@H](OC(=O)c1cc(O)c(O)c(O)c1)[C@@H](c1cc(O)c(O)c(O)c1)O2)c1cc(O)c(O)c(O)c1 [epigallocatechin 3,5 digallate]
screening hit: restoration of uPA activity [3]: positive hits

IC50 [1]: 0.05 µM
SMILES: O=C(O[C@H]1CC[C@@H](OC(=O)c2cc(O)c(O)c(O)c2)CC1)c1cc(O)c(O)c(O)c1 [CDE-061]

IC50 [1]: 48.3 µM
SMILES: CC(C)(COC(=O)c1cc(O)c(O)c(O)c1)COC(=O)c1cc(O)c(O)c(O)c1 [CDE-067]

IC50 [1]: 196 µM
PAI-1 inhibitory efficacy (in words) [2]: effective PAI-1 inhibitors
SMILES: O=C(OCCOCCOCCOC(=O)c1cc(O)c(O)c(O)c1)c1cc(O)c(O)c(O)c1 [CDE-012]

IC50 [1]: 269 µM
SMILES: O=C(NCCCNC(=O)c1cc(O)c(O)c(O)c1)c1cc(O)c(O)c(O)c1 [CDE-070]

IC50 [1]: 900 µM
SMILES: O=C(NCCNC(=O)c1cc(O)c(O)c(O)c1)c1cc(O)c(O)c(O)c1 [CDE-044]

SMILES: Oc1c(Cl)cc(Cl)c(Cl)c1Cc1c(O)c(Cl)cc(Cl)c1Cl [hexachlorophene]
effect of pH on PAI-1 inhibition (in words) [2]: did not improve at pH 8.5 compared to pH 7.5
screening hit: restoration of β-trypsin activity [4]: demonstrate PAI-1 inhibitor activity

SMILES: O=C(NCCNC(=O)c1ccc(O)c([N+](=O)[O-])c1)c1ccc(O)c([N+](=O)[O-])c1 [CDE-060]
IC50 [1]: 236 µM

IC50 [1]: 0.37 µM
effect on ATIII activity (in words) [5]: no effect
IC50 ([2]; pH 6.5): 325 µM
IC50 ([2]; pH 7.5): 0.288 µM
IC50 ([2]; pH 8.5): 0.064 µM
Kd (PAI-1): 23 ± 1 nM
change of IC50 in the presence of vitronectin (PAI-1/vitronectin; at each pH (7.5 and 8.5)): 1 log value
SMILES: O=C(OCCOC(=O)c1cc(O)c(O)c(O)c1)c1cc(O)c(O)c(O)c1 [CDE-008]
effect of pH on PAI-1 inhibition (in words) [2]: more effective inhibitor at pH 8.5 than at pH 7.5
inhibition of PAI-1 in the presence of vitronectin (in words) (PAI-1/vitronectin; 200 nM vitronectin, pH 7.5 and pH 8.5): inhibits PAI-1 in the presence of vitronectin at both pH 7.5 and pH 8.5

IC50 [1]: 450 µM
effect of pH on PAI-1 inhibition (in words) [2]: increased with increasing pH
PAI-1 inhibitory efficacy (in words) [2]: effective inhibitors of PAI-1
SMILES: O=S(=O)(NCCNS(=O)(=O)c1ccc(O)c(O)c1)c1ccc(O)c(O)c1 [CDE-021]

IC50 [1]: 49.3 µM
PAI-1 inhibitory efficacy (in words) [2]: effective PAI-1 inhibitors
SMILES: O=C(OCCOCCOC(=O)c1cc(O)c(O)c(O)c1)c1cc(O)c(O)c(O)c1 [CDE-009]

SMILES: CCOC(=O)[C@H](Cc1ccc(O)c([N+](=O)[O-])c1)NC(=O)[C@H](Cc1ccc(O)c([N+](=O)[O-])c1)NC(=O)OC(C)(C)C [CDE-033] (Boc-[Tyr(3-NO2)]-[Tyr(3-NO2)]-OEt)
IC50 [1]: 246 µM

IC50 [1]: 0.09 µM
IC50 (active mouse PAI-1): 973 µM
SMILES: O=S(=O)(NNS(=O)(=O)c1ccc(O)c(O)c1)c1ccc(O)c(O)c1 [CDE-059]
